The source of these data is US20120245223A1, “USE OF GYMNODIMINE, ANALOGUES AND DERIVATIVES FOR THE TREATMENT AND/OR PREVENTION OF NEURODEGENERATIVE DISEASES ASSOCIATED WITH TAU AND B-AMYLOID” (priority 2009, published 2012).

The structures appear in SMILES notation.

Data set [1] deals with tau phosphorylated on Thr212 and Ser214. As to the kind of experiment: Western blot of tau phosphorylated on Thr212 and Ser214 (AT100 antibody) in 3×Tg-AD cortical cultures. The format is cell-based, mouse. The settings on record: 3×Tg transgenic cultures, 50 nM, 3 to 7 days; p<0.001, n=3. The source says: (§1) In order to carry out the experiments of the present invention, either an in vitro cortical neuronal model with simultaneous overexpression of tau and β-amyloid, obtained from a model of Alzheimer's disease in triple-transgenic (3×Tg-AD or 3×Tg) mice, obtainable via the detailed procedure in the international patent application WO2003/053136 and provided by the title holders of this application, or an in vitro cortical neuronal model obtained from non-transgenic (Non Tg) mice.
(§2) The effect of gymnodimine on overexpression of β-amyloid and tau hyperphosphorylation was determined by the Western blot technique. Primary neuronal cultures were treated with 50 nM gymnodimine for between 3 and 7 days of culture. The cells were then processed following the usual protocols for Western blot. For Western blot studies, protein expression was evaluated using 6E10 anti-β-amyloid primary antibodies at a dilution of 1:500, AT8 anti-Tau (tau phosphorylated on Ser202, dilution 1:1000) and AT100 anti-tau (tau phosphorylated on Thr212 and Ser214, dilution 1:1000). […] Total protein concentration was determined by Bradford's method using bovine albumin as standard. […] The membranes were incubated with the primary antibodies, washed, and then incubated with a secondary antibody linked to HRP; the immunoreactivity was detected by chemiluminescence. […]
In general terms: A western blot detects proteins with antibodies after separation by electrophoresis.

The conditions of data set [2]: cited from earlier work.
The test system of data set [3] is nicotinic acetylcholine receptors. The settings on record: blocking effect; Kharrat et al. 2008, Dragunow et al. 2005; cited from earlier work.
The subject of data set [4] is tau phosphorylated on site Ser202. Nature of the data set: Western blot of basal tau phosphorylated on Ser202 in control neurones. The format is cell-based, mouse. The conditions noted are these: control (non-transgenic) neurones, 50 nM. As to the method:
(§3) The effect of gymnodimine on overexpression of β-amyloid and tau hyperphosphorylation was determined by the Western blot technique. Primary neuronal cultures were treated with 50 nM gymnodimine for between 3 and 7 days of culture. The cells were then processed following the usual protocols for Western blot. For Western blot studies, protein expression was evaluated using 6E10 anti-β-amyloid primary antibodies at a dilution of 1:500, AT8 anti-Tau (tau phosphorylated on Ser202, dilution 1:1000) and AT100 anti-tau (tau phosphorylated on Thr212 and Ser214, dilution 1:1000). For Western blot assays, the neuronal cultures treated with gymnodimine were washed with cold phosphate buffer and lysed in 50 mM Tris-HCl buffer (pH 7.4) containing 150 mM NaCl, 1 mM EDTA, 1% Triton X-100, 2 mM DTT, 2.5 mM PMSF, 40 mg/ml aprotinin, 4 mg/ml leupeptin, 5 mM NaF, 1 mM Na3VO4, 1 mg/ml pepstatin A and 1 mg/ml benzamidine. Total protein concentration was determined by Bradford's method using bovine albumin as standard. […] The membranes were incubated with the primary antibodies, washed, and then incubated with a secondary antibody linked to HRP; the immunoreactivity was detected by chemiluminescence. […]
(§4) The effect of gymnodimine on basal phosphorylation of tau was determined by Western blot techniques. […]

The subject of a further data set is total tau. Nature of the data set: Western blot of total tau basal levels (Tau46 antibody) in control neurones. The settings on record: control (non-transgenic) neurones, 50 nM; mean ± standard error, two experiments. The class given is cell-based, mouse. As to the method:
as §3, §4

The test system of the next data set is cortical neurones. Nature of the data set: Alamar Blue fluorescence viability assay in primary cortical cultures. The settings on record: for Viability of cortical neurones: 72 hours in culture, mean ± standard error, three experiments. The format is cell-based, mouse.
Text: as §1
The primary cortical cultures in the present invention were obtained from 3×Tg-AD mouse embryos of 15-17 days gestation and the wild cultures were obtained from non-3×Tg control mouse embryos of the same strain. The effect of the compounds used in this invention on cellular viability was estimated by a fluorescence assay using the Alamar Blue viability indicator. To carry out the assay, primary cortical cultures seeded on 96-well plates were used. The neuronal cells were incubated with gymnodimine, which was added to the culture medium at different concentrations, and the effect on in vitro neuronal viability at different treatment times was determined. The maximum concentration of gymnodimine evaluated was 100 nM and the concentration of Alamar blue was 10%. The volume of the reaction used was 200 μl. Fluorescence was measured at wavelengths of 530 nm (excitation) and 590 nm (emission).
In general terms: The colour change of resazurin is a common sign of viable cells or microbes.

For the next data set, the system named is β-amyloid. Nature of the data set: Western blot of intracellular β-amyloid (6E10 antibody) in 3×Tg-AD cortical cultures. The class given is cell-based, mouse. The conditions noted are these: 3×Tg-AD neocortical cultures, 50 nM, 3 to 7 days; p<0.005, n=3.
Text: as §1, §2

In data set [5] the test system is tau phosphorylated on Ser202. As to the kind of experiment: Western blot of tau phosphorylated on Ser202 (AT8 antibody) in 3×Tg-AD cortical cultures. The settings on record: 3×Tg transgenic cultures, 50 nM, 3 to 7 days; p<0.05, n=3. The class given is cell-based, mouse.
Text: as §1, §2

In the case of `CC1=C[C@@H](C2=C(C)[C@@H]3/C=C(\C)[C@@H](O)CC[C@H]4C[C@@H](C)[C@@H](O4)/C(C)=C/CCC4=NCCC[C@@]43CC2)OC1=O` [Gymnodimine, gymnodimine], in data set [1], the “Tau phosphorylation on Thr212 and Ser214 (Western blot, AT100)” value is recorded as “significant reduction of tau phosphorylation”. Besides, in data set [2] (introduced intracerebrally compared with intraperitoneally), the “Toxicity intracerebrally versus intraperitoneally” value is “much higher when it is introduced intracerebrally”. Also, in data set [2] (oral administration, Munday et al. 2004), the “Toxicity when orally administered” value is on record as “significantly reduced toxicity”. For the same molecule, the “Binding to nicotinic acetylcholine receptors” value in data set [3] is “high affinity binding”. For the same molecule, the “Levels of tau phosphorylated on site Ser202” value in data set [4] is listed as 95% control. Besides, the “Total tau basal levels” value in the data set with total tau was found to be 111 ± 3.9% control. Also, the “Viability of cortical neurones” value is recorded as 97.0 ± 4.9 % control with cortical neurones (2.5 nM); 102.8 ± 0.3 % control in the data set with cortical neurones (5 nM); 105.6 ± 5.9 % control with cortical neurones (10 nM); 105.1 ± 1.09 % control in the data set with cortical neurones (25 nM); 102.9 ± 1.4 % control in the data set on cortical neurones (50 nM); 101.8 ± 1.7 % control with cortical neurones (100 nM). Besides, the “Effect on cell viability (in words)” value in the data set with cortical neurones (up to maximum concentration of 100 nM, neuronal model) was “does not cause a reduction in cell viability”. For the same molecule, the “Expression of intracellular β-amyloid (Western blot, 6E10)” value in the data set with β-amyloid was “significant reduction of overexpression of β-amyloid”. For the same molecule, in data set [5], the “Tau phosphorylation on Ser202 (Western blot, AT8)” value is given as “significant reduction of tau phosphorylation”.
